Measurements from patent US20130240456A1, “DEVICE AND METHOD FOR LABEL-FREE SEPARATION OF MATERIAL USING MAGNETIC FIELD” (THE GOVERNING COUNCIL OF THE UNIVERSITY OF TORONTO, priority 2012, published 2013).

Experiments:
adult mouse CM = details: 2.5 mM NaNO2, versus untreated, unseparated control
Protocol: Adult mouse CMs were isolated and suspended in Kraft Bruhe (KB) solution at 4° C. The KB solution consisted of 120 mM K-glutamate, 10 mM KCl, 10 mM KH2PO4, 2 mM MgSO4.7H2O, 10 mM Taurine, 5 mM Creatine, 10 mM HEPES, 10 mM Glucose, 0.5 mM EGTA, 0.10% Bovine Serum Albumin (BSA) and a final pH of 7.3 adjusted with KOH. The adult mouse CMs in KB solution were then split into three groups. Each of these three KB solutions containing adult mouse CMs was then further split into four groups; in total, 12 groups of adult mouse CMs in KB solution were maintained at 4° C. and allowed to settle to the bottom of Eppendorf tubes.
The Eppendorf containing KB Solution and adult mouse CMs was left untouched. The other three Eppendorf tubes had the KB solution removed. […] The four Eppendorf tubes were then returned to 4° C. environment to allow the cells settle.
The other three Eppendorf tubes containing adult mouse CMs in the three other solutions were left at room temperature while the device was running.
At the end of the sorting process, each of the Eppendorf tubes that had been sitting at room temperature were equally split into 24-well plate wells. The sorted run was emptied into one well. An equal volume of trypan blue was added to each well. After a minute, 1 mL of either KB or HBSS and 30% FBS was added to each of the wells depending on the group. […]

neonatal rat CM [1] = details: horizontal device study
Protocol: Cell viability was determined immediately after treatment. In addition, the cells were cultivated in 3D for 7 days as described below.
Live/dead staining was performed by incubating the cells or constructs in a solution of carboxyfluorescein diacetate-succinimidyl ester (CFDA-SE, 10 μM, from Molecular Probes) and propidium iodide (PI, 2.5 μg/mL, from Molecular Probes) for 30-45 minutes at 37° C., according to the manufacturer's protocol (from Molecular Probes, Burlington, Canada). The cells were imaged using a fluorescent microscope (Leica DMIRE2, from Wetzlar, Germany). […] Following treatment, the cells were washed in HBSS, and incubated for 5 hrs in 37° C./5% CO2 incubator. Non-viable cells with compromised cell membranes could be identified by red fluorescence due to binding of PI to their nuclei, while viable cells converted CFDA-SE to the green fluorescent dye […] by esterase-mediated cleavage.
Live/dead staining was performed by incubating the cells or constructs in a solution of carboxyfluorescein diacetate-succinimidyl ester (CFDA-SE, 10 μM, from Molecular Probes) and propidium iodide (PI, 2.5 μg/mL, from Molecular Probes) for 30-45 minutes at 37° C., according to the manufacturer's protocol (from Molecular Probes, Burlington, Canada). The cells were imaged using a fluorescent microscope (Leica DMIRE2, from Wetzlar, Germany). […]

myoglobin [2] = molecular target: myoglobin (Mus musculus, UniProt P04247); details: 2.5 mM NaNO2, ratio of absorbance 635 nm/525 nm
Protocol: (§1) UV-vis measurements were made in cells lysed with NP40 Lysis Buffer, for 30 min on ice, with cell debris spun down at 13000 rpm for 10 min at 4° C. […] ND-1000 Nanodrop spectrophotometer (from Nanodrop Technologies, Inc., Wilmington, Del., USA) was used to collect absorption spectra from 200-700 nm.

myoglobin [3] = molecular target: myoglobin (Rattus norvegicus, UniProt Q9QZ76)
Protocol: as §1

neonatal rat CM [4] = details: constructs of treated and control cells, no significant differences
Protocol: Contractile properties of CMs were measured by field stimulation in an electrical stimulation chamber consisting of two parallel carbon electrodes spaced 1 cm apart as described in [24]. Stimulation was provided by an external electric stimulator (Grass s88x). Using monophasic pulses of 2 ms duration and frequency of 1 pulse per second, the excitation threshold (minimum voltage at which synchronous contractions of 75% of the tissue in the field of view can be observed) was first determined. Then the maximum capture rate (maximum beating frequency) was determined at 200% of the determined excitation threshold voltage.

Sequence of myoglobin (Rattus norvegicus, UniProt Q9QZ76) (Q9QZ76 whole entry): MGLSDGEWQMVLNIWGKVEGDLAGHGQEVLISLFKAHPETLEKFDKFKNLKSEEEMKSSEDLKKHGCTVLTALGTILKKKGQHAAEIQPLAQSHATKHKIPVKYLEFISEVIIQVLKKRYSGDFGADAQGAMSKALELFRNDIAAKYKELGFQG
Sequence of myoglobin (Mus musculus, UniProt P04247) (P04247 whole entry): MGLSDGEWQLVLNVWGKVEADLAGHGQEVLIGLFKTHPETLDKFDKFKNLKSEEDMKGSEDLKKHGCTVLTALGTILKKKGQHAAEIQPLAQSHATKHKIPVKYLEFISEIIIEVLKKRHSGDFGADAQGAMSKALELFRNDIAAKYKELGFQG

**Q.** How did the “viability of adult mouse CM after separation and subsequent culture for 24 hr” value (adult mouse CM) turn out when O=NO [NaNO2, sodium nitrite] was run?
**A.** Its value is “not compromised”.

**Q.** What about the “viability of CMs after treatment with NaNO2 (FIGS. 23A and 23B)” value (neonatal rat CM [1]) of the same compound?
**A.** Its value is “unaffected”.

**Q.** And the “time of maximum metmyoglobin induction after nitrite was introduced” value (myoglobin [2])?
**A.** Its value is “about 45 min”.

**Q.** And the “conversion of Mb to metMb” value (myoglobin [3]; 50 mM NaNO2, 30 min, referencing to the 1 hr time point)?
**A.** The value was 92±3.5%.

**Q.** What about the “time at which metMb induction reached the equilibrium value” (myoglobin [3]; 50 mM NaNO2, transient study) of the same compound?
**A.** Its value is 30 min.

**Q.** What about the “semi-quantitative fold conversion to metMb” value (myoglobin [3]; 50 mM NaNO2, transient study, stabilized value) of the same compound?
**A.** Its value is “about 10 times the initial metMb amount”.

**Q.** And the “excitation threshold (ET)” value (neonatal rat CM [4])?
**A.** Its value is “about 4.5±1.3 V/cm”.

**Q.** What about the “maximum capture rate (MCR)” value (neonatal rat CM [4]) of the same compound?
**A.** The value was “about 8.3±1.0 pps”.
